Source: PubChem BioAssay (NCI)
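These data come from cells grown in 96-well plates and exposed to compound for 48 hours at five concentrations. TGI is the concentration that stops growth completely.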

Tests used:
Test in all cases: DTP human tumour cell line panel, 48 h
[1] = tested on: SK-MEL-28 melanoma
[2] = tested on: OVCAR-5 ovarian
[3] = tested on: OVCAR-4 ovarian
[4] = tested on: SN12C renal
[5] = tested on: KM20L2 colon
[6] = tested on: ACHN renal
[7] = tested on: SK-MEL-2 melanoma
[8] = tested on: MOLT-4 leukemia
[9] = tested on: UACC-257 melanoma
[10] = tested on: OVCAR-8 ovarian
[11] = tested on: KM12 colon
[12] = tested on: TK-10 renal
[13] = tested on: HCT-15 colon
[14] = tested on: SNB-19 CNS
[15] = tested on: HOP-92 NSCLC
[16] = tested on: M14 melanoma
[17] = tested on: DMS 273 small cell lung
[18] = tested on: K-562 leukemia
[19] = tested on: A549 NSCLC
[20] = tested on: U251 CNS
[21] = tested on: DLD-1 colon
[22] = tested on: NCI-H522 lung
[23] = tested on: CCRF-CEM leukemia
[24] = tested on: NCI-H460 lung
[25] = tested on: HCT-116 colon
[26] = tested on: SF-295 CNS
[27] = tested on: DMS 114 small cell lung
[28] = tested on: SF-539 CNS
[29] = tested on: SW-620 colon
[30] = tested on: RXF 393 renal
[31] = tested on: A498 renal
[32] = tested on: XF 498 CNS
[33] = tested on: CAKI-1 renal
[34] = tested on: SK-MEL-5 melanoma
[35] = tested on: HCC-2998 colon
[36] = tested on: NCI-H23 lung
[37] = tested on: SNB-75 CNS
[38] = tested on: OVCAR-3 ovarian
[39] = tested on: COLO 205 colon
[40] = tested on: 786-0 renal
[41] = tested on: M19-MEL melanoma
[42] = tested on: HT29 colon
[43] = tested on: SF-268 CNS
[44] = tested on: LXFL 529 NSCLC
[45] = tested on: UO-31 renal
[46] = tested on: HOP-18 NSCLC
[47] = tested on: EKVX NSCLC
[48] = tested on: RPMI-8226 leukemia
[49] = tested on: MALME-3M melanoma
[50] = tested on: SK-OV-3 ovarian
[51] = tested on: SNB-78 CNS
[52] = tested on: UACC-62 melanoma
[53] = tested on: IGROV1 ovarian
[54] = tested on: LOX IMVI melanoma
[55] = tested on: HOP-62 NSCLC
[56] = tested on: HL-60(TB) leukemia
[57] = tested on: NCI-H226 lung

Cc1cc(C)nc(NS(=O)(=O)c2ccc(NC(=O)c3cccc4c(Nc5ccc(S(=O)(=O)Nc6nc(C)cc(C)n6)cc5)c5ccc(Cl)cc5nc34)cc2)n1
TGI [1]: > 100 µM | TGI [2]: > 100 µM | TGI [3]: > 100 µM | TGI [4]: > 100 µM | TGI [5]: > 100 µM | TGI [6]: > 100 µM | TGI [7]: > 100 µM | TGI [8]: > 100 µM | TGI [9]: 62.9 µM | TGI [10]: > 100 µM | TGI [11]: > 100 µM | TGI [12]: > 100 µM | TGI [13]: > 100 µM | TGI [14]: > 100 µM | TGI [15]: 62.6 µM | TGI [16]: > 100 µM | TGI [17]: > 100 µM | TGI [18]: 88.6 µM | TGI [19]: > 100 µM | TGI [20]: > 100 µM | TGI [21]: > 100 µM | TGI [22]: 54.7 µM | TGI [23]: 79.8 µM | TGI [24]: > 100 µM | TGI [25]: > 100 µM | TGI [26]: > 100 µM | TGI [27]: 79.8 µM | TGI [28]: > 100 µM | TGI [29]: > 100 µM | TGI [30]: > 100 µM | TGI [31]: > 100 µM | TGI [32]: 59.8 µM | TGI [33]: 77.1 µM | TGI [34]: 42.7 µM | TGI [35]: > 100 µM | TGI [36]: > 100 µM | TGI [37]: 67.9 µM | TGI [38]: 58.3 µM | TGI [39]: > 100 µM | TGI [40]: > 100 µM | TGI [41]: > 100 µM | TGI [42]: > 100 µM | TGI [43]: > 100 µM | TGI [44]: > 100 µM | TGI [45]: 82 µM | TGI [46]: > 100 µM | TGI [47]: > 100 µM | TGI [48]: 91.9 µM | TGI [49]: 50.3 µM | TGI [50]: 77.1 µM | TGI [51]: > 100 µM | TGI [52]: 56.2 µM | TGI [53]: > 100 µM | TGI [54]: > 100 µM | TGI [55]: 71.9 µM

O=C1Nc2ccccc2C12CCCC2
TGI [1]: > 100 µM | TGI [3]: > 100 µM | TGI [4]: > 100 µM | TGI [5]: > 100 µM | TGI [6]: > 100 µM | TGI [7]: > 100 µM | TGI [8]: > 100 µM | TGI [9]: > 100 µM | TGI [10]: > 100 µM | TGI [11]: > 100 µM | TGI [12]: > 100 µM | TGI [13]: > 100 µM | TGI [14]: > 100 µM | TGI [16]: > 100 µM | TGI [17]: > 100 µM | TGI [18]: > 100 µM | TGI [19]: > 100 µM | TGI [20]: > 100 µM | TGI [21]: > 100 µM | TGI [22]: > 100 µM | TGI [23]: > 100 µM | TGI [24]: > 100 µM | TGI [25]: > 100 µM | TGI [26]: > 100 µM | TGI [27]: > 100 µM | TGI [28]: > 100 µM | TGI [29]: > 100 µM | TGI [30]: > 100 µM | TGI [31]: > 100 µM | TGI [56]: > 100 µM | TGI [32]: > 100 µM | TGI [33]: > 100 µM | TGI [34]: > 100 µM | TGI [35]: > 100 µM | TGI [36]: > 100 µM | TGI [37]: > 100 µM | TGI [38]: > 100 µM | TGI [39]: > 100 µM | TGI [40]: > 100 µM | TGI [41]: > 100 µM | TGI [42]: > 100 µM | TGI [43]: > 100 µM | TGI [44]: > 100 µM | TGI [45]: > 100 µM | TGI [46]: > 100 µM | TGI [47]: > 100 µM | TGI [48]: > 100 µM | TGI [49]: > 100 µM | TGI [50]: > 100 µM | TGI [51]: > 100 µM | TGI [52]: > 100 µM | TGI [53]: > 100 µM | TGI [55]: > 100 µM

CCOc1ccccc1N1C(=O)C(=O)C(c2nc3ccccc3s2)C(=O)C1=O
TGI [1]: > 100 µM | TGI [2]: > 100 µM | TGI [3]: 17.8 µM | TGI [4]: > 100 µM | TGI [5]: > 100 µM | TGI [6]: 54 µM | TGI [7]: > 100 µM | TGI [9]: > 100 µM | TGI [10]: > 100 µM | TGI [11]: > 100 µM | TGI [12]: > 100 µM | TGI [13]: > 100 µM | TGI [14]: > 100 µM | TGI [15]: > 100 µM | TGI [16]: > 100 µM | TGI [17]: > 100 µM | TGI [19]: > 100 µM | TGI [20]: > 100 µM | TGI [21]: > 100 µM | TGI [24]: > 100 µM | TGI [25]: > 100 µM | TGI [26]: > 100 µM | TGI [27]: > 100 µM | TGI [57]: > 100 µM | TGI [28]: > 100 µM | TGI [29]: > 100 µM | TGI [30]: > 100 µM | TGI [31]: 39 µM | TGI [32]: > 100 µM | TGI [33]: > 100 µM | TGI [35]: > 100 µM | TGI [36]: > 100 µM | TGI [37]: > 100 µM | TGI [38]: 44.2 µM | TGI [39]: > 100 µM | TGI [40]: 20.8 µM | TGI [41]: > 100 µM | TGI [42]: > 100 µM | TGI [43]: > 100 µM | TGI [44]: > 100 µM | TGI [45]: > 100 µM | TGI [46]: 69.8 µM | TGI [47]: > 100 µM | TGI [48]: > 100 µM | TGI [49]: > 100 µM | TGI [50]: > 100 µM | TGI [51]: > 100 µM | TGI [52]: > 100 µM | TGI [53]: > 100 µM | TGI [54]: > 100 µM | TGI [55]: > 100 µM
